Experimental data taken from ChEMBL document CHEMBL5584341, “Discovery of Potent, Specific, and Orally Available NLRP3 Inflammasome Inhibitors Based on Pyridazine Scaffolds for the Treatment of Septic Shock and Peritonitis” (J Med Chem, 2024).
The source made the active and inactive calls. The rule behind the calls is not given here.

Columns and labels:
[1] = target: T1, Interferon-inducible protein AIM2 (Mus musculus) (UniProt Q91VJ1); experiment: Inhibition of poly dA:dT stimulated AIM2 inflammasome activation in mouse BMDMs assessed as reduction in IL-1beta secretion pretreated with LPS for 3 hrs followed by compound addition for 40 mins prior to poly dA:dT stimulation for 6 hrs by Western blotting analysis; assay type: cell-based; conditions: BMDM, time 400.0 min
T1 sequence (whole entry): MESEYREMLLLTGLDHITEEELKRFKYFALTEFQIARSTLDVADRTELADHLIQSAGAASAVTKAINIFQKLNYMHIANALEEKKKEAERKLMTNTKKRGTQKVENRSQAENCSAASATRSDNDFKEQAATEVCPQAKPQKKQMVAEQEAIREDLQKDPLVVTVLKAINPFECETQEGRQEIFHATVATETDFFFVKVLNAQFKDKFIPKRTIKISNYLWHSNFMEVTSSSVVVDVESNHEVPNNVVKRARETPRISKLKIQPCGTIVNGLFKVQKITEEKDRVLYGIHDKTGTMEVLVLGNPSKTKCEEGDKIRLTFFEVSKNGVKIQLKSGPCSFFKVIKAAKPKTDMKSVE

[2] = target: NACHT, LRR and PYD domains-containing protein 3 (Mus musculus) (UniProt Q8R4B8); experiment: Inhibition of NLRP3 inflammasome activation in mouse BMDMs assessed as effect on NLRP3 expression at 2 to 31.25 nM pretreated with compound for 40 mins followed by LPS/nigericin stimulation; assay type: cell-based; conditions: BMDM, dose 2-31.25 nM
[3] = target: NACHT, LRR and PYD domains-containing protein 3 (Mus musculus) (UniProt Q8R4B8); experiment: Inhibition of NLRP3 inflammasome activation in LPS/nigericin stimulated mouse BMDMs assessed as effect on pro-IL-1beta expression pretreated with LPS for 3 hrs followed by compound addition for 40 mins prior to nigericin stimulation for 40 mins by Western blotting analysis; assay type: cell-based; conditions: BMDM, time 80.0 min
[4] = target: NACHT, LRR and PYD domains-containing protein 3 (Mus musculus) (UniProt Q8R4B8); experiment: Inhibition of NLRP3 inflammasome activation in LPS/nigericin stimulated mouse BMDMs assessed as reduction in IL-1beta release pretreated with LPS for 3 hrs followed by compound addition for 40 mins prior to nigericin stimulation for 40 mins by Western blotting analysis; assay type: cell-based; conditions: BMDM, time 80.0 min
hERG (KCNH2) = hERG (KCNH2) (Homo sapiens, UniProt Q12809); experiment: Inhibition of human ERG at 20 uM relative to control
[5] = target: NACHT, LRR and PYD domains-containing protein 3 (Mus musculus) (UniProt Q8R4B8); experiment: Inhibition of NLRP3 inflammasome activation in mouse BMDMs assessed as effect on pro-IL-1beta expression at 2 to 31.25 nM pretreated with compound for 40 mins followed by LPS/nigericin stimulation; assay type: cell-based; conditions: BMDM, dose 2-31.25 nM
[6] = target: NACHT, LRR and PYD domains-containing protein 3 (Mus musculus) (UniProt Q8R4B8); experiment: Inhibition of NLRP3 inflammasome activation in mouse BMDMs assessed as effect on TNF-alpha production at 2 to 31.25 nM pretreated with compound for 40 mins followed by LPS/ATP stimulation; assay type: cell-based; conditions: BMDM, dose 2-31.25 nM
[7] = target: NACHT, LRR and PYD domains-containing protein 3 (Mus musculus) (UniProt Q8R4B8); experiment: Inhibition of LPS/nigericin induced NLRP3 inflammasome activation in mouse BMDMs assessed as reduction in pyroptosis by measuring […] at 2 to 31.25 nM; assay type: cell-based; conditions: BMDM, dose 2-31.25 nM
BMDM = experiment: Reduction in LDH release in LPS/nigericin stimulated mouse BMDMs at 5 to 80 nM; assay type: functional, cell-based; conditions: dose 5-80 nM
Mus musculus [8] = experiment: Antiinflammatory activity against LPS induced septic shock in BALB/c mouse assessed as increase in survival rate at 25 mg/kg, ip pretreated for 1 hr followed by LPS stimulation and measured after 72 hrs; assay type: functional; conditions: time 73 hrs
[9] = target: NACHT, LRR and PYD domains-containing protein 3 (Mus musculus) (UniProt Q8R4B8); experiment: Inhibition of NLRP3 inflammasome activation in mouse BMDMs assessed as effect on pro-IL-1beta expression at 2 to 31.25 nM pretreated with LPS for 3 hrs followed by compound addition for 40 mins; assay type: cell-based; conditions: BMDM, dose 2-31.25 nM
AML12 = experiment: Cytotoxicity against mouse AML12 cells at 5 uM incubated for 72 hrs by MTT assay; assay type: toxicity, cell-based; conditions: aml12, 72 h
[10] = Tmax in BALB/c mouse at 5 mg/kg, po measured upto 24 hrs by LC-MS/MS analysis; assay type: ADME, organism-based; conditions: in vivo
[11] = target: NACHT, LRR and PYD domains-containing protein 3 (Mus musculus) (UniProt Q8R4B8); experiment: Inhibition of NLRP3 inflammasome activation in LPS stimulated mouse BMDMs assessed as reduction in IL-1beta release at 2 to 31.25 nM pretreated with LPS for 3 hrs followed by compound addition for 40 mins prior to MSU stimulation for 6 hrs by ELISA; assay type: cell-based; conditions: BMDM, dose 2-31.25 nM, time 400.0 min
[12] = Inhibition of IL-1beta release in PMA-differentiated/ LPS and nigericin stimulated human THP-1 cells at 0.1 uM pretreated with LPS for 3 hrs followed by incubation with compound for 40 mins and later stimulated with nigericin for 40 mins by ELISA; assay type: functional; conditions: THP-1, 1.333 h, time 80 min
[13] = target: NACHT, LRR and PYD domains-containing protein 3 (Mus musculus) (UniProt Q8R4B8); experiment: Inhibition of NLRP3 inflammasome activation in LPS/nigericin stimulated mouse BMDMs assessed as effect on pro-caspase-1 expression pretreated with LPS for 3 hrs followed by compound addition for 40 mins prior to nigericin stimulation for 40 mins by Western blotting analysis; assay type: cell-based; conditions: BMDM, time 80.0 min
[14] = Half-life in BALB/c mouse at 5 mg/kg, po measured upto 24 hrs by LC-MS/MS analysis; assay type: ADME, organism-based; conditions: in vivo
Cytochrome P450 3A4 = Cytochrome P450 3A4 (Homo sapiens, UniProt P08684); experiment: Inhibition of human CYP3A4 upto 10 uM relative to control; assay type: ADME
Mus musculus [15] = experiment: Antiinflammatory activity against LPS induced septic shock in BALB/c mouse assessed as reduction in TNFalpha level at 25 mg/kg, ip pretreated for 1 hr followed by LPS stimulation and measured after 3 hrs by ELISA; assay type: functional, organism-based; conditions: time 4.0 hrs
Cytochrome P450 2D6 = Cytochrome P450 2D6 (Homo sapiens, UniProt P10635); experiment: Inhibition of human CYP2D6 at 10 uM relative to control; assay type: ADME
[16] = Inhibition of IL-1beta release in PMA-differentiated/ LPS and nigericin stimulated human THP-1 cells at 0.5 uM pretreated with LPS for 3 hrs followed by incubation with compound for 40 mins and later stimulated with nigericin for 40 mins by ELISA; assay type: functional; conditions: THP-1, 1.333 h, time 80 min
Mus musculus [17] = experiment: Inhibition of MSU crystal induced peritonitis in BALB/c mouse assessed as reduction in IL-1beta level in peritoneal lavage fluids at 50 to 100 mg/kg, ip pretreated with LPS for 3 hrs followed by compound addition prior to MSU stimulation for 6 hrs by ELISA; assay type: functional, organism-based; conditions: dose 50-100 mg/kg
HepG2 = experiment: Cytotoxicity against human HepG2 cells at 5 to 20 uM incubated for 72 hrs by MTT assay; assay type: toxicity, cell-based; conditions: hepg2, 72 h, dose 5-20 µM
Mus musculus [18] = experiment: Antiinflammatory activity against LPS induced septic shock in BALB/c mouse assessed as reduction in serum IL-1beta level at 25 mg/kg, ip pretreated for 1 hr followed by LPS stimulation and measured after 3 hrs by ELISA; assay type: functional, organism-based; conditions: time 4.0 hrs
Mus musculus [19] = experiment: Inhibition of MSU crystal induced peritonitis in BALB/c mouse assessed as reduction in serum IL-1beta level at 50 to 100 mg/kg, ip pretreated with LPS for 3 hrs followed by compound addition prior to MSU stimulation for 6 hrs by ELISA; assay type: functional, organism-based; conditions: dose 50-100 mg/kg
LX-2 = experiment: Cytotoxicity against human LX-2 cells at 5 uM incubated for 72 hrs by MTT assay; assay type: toxicity, cell-based; conditions: lx-2, 72 h
[20] = Metabolic stability in human liver microsomes assessed as half life at 10 uM […] in presence of NADPH by LC-MS/MS analysis; assay type: ADME, Microsome

NACHT, LRR and PYD domains-containing protein 3 (Mus musculus), sequence (Q8R4B8 whole entry, the tested form may be a part): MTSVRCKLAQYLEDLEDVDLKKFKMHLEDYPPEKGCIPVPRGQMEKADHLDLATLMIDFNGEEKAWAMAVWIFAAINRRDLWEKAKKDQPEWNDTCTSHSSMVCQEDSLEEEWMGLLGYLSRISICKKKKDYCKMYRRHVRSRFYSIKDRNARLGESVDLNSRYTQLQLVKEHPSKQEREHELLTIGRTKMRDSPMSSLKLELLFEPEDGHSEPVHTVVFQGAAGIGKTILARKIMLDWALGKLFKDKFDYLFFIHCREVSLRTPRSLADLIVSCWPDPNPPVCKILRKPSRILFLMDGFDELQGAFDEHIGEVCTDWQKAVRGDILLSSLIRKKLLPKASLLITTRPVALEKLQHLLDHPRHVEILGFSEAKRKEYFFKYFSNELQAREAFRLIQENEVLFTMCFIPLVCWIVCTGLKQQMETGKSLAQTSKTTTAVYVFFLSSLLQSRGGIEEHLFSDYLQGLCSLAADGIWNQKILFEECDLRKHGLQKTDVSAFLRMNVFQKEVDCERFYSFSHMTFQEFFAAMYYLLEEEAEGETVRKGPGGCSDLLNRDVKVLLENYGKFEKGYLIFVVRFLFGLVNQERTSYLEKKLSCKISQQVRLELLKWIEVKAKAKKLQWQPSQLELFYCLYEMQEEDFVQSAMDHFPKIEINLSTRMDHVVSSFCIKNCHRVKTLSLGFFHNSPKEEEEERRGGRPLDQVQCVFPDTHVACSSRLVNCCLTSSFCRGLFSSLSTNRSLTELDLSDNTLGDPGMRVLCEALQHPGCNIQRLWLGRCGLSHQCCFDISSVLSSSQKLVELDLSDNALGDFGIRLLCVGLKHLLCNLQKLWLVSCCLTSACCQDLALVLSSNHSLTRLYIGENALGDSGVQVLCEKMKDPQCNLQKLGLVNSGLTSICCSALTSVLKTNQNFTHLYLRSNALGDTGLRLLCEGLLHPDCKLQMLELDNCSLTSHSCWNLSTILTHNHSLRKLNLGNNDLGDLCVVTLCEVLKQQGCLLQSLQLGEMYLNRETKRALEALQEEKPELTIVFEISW
hERG (KCNH2), sequence (Q12809 whole entry, the tested form may be a part): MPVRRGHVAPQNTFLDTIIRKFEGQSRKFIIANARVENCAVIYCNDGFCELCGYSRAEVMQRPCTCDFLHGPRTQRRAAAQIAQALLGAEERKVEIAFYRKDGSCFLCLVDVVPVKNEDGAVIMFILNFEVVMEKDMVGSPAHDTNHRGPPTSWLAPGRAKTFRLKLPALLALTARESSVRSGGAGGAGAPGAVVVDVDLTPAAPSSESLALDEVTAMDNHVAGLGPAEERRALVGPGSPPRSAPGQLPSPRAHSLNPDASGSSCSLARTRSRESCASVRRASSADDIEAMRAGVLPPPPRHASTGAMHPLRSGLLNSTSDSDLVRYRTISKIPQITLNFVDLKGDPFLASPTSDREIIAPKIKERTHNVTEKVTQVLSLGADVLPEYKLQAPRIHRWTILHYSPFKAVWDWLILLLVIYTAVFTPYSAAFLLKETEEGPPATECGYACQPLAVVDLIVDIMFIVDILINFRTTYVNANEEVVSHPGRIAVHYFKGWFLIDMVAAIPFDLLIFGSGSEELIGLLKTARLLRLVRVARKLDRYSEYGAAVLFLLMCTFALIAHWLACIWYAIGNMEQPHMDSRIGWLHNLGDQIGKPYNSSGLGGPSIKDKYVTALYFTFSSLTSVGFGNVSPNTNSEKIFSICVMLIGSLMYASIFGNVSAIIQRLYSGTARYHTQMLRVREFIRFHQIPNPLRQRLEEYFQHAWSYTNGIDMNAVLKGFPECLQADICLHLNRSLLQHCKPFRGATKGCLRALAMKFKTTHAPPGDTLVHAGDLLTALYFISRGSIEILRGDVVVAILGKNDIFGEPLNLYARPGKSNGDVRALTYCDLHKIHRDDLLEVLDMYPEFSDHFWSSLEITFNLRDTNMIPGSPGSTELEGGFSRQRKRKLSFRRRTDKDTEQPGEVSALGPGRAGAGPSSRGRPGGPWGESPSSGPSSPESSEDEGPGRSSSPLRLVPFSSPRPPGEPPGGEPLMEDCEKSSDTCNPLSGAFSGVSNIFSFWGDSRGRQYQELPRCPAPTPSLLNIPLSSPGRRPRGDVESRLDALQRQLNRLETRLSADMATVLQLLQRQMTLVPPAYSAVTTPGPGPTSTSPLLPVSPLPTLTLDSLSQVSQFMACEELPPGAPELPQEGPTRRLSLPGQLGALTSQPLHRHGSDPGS
Cytochrome P450 2D6, sequence (P10635 whole entry): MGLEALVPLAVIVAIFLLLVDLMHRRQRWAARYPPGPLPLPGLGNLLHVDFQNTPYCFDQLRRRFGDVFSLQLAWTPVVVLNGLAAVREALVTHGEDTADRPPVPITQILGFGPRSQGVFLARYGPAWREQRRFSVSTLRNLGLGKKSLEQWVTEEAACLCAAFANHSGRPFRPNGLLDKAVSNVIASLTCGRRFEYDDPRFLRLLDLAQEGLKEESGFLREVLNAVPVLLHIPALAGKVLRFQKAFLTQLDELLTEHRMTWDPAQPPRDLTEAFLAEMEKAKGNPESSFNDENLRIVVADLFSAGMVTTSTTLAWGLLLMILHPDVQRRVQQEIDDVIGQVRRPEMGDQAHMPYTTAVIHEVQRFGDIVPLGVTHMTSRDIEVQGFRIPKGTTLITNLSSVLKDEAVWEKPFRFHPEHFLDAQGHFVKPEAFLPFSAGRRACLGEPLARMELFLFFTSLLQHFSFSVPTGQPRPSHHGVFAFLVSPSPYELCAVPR
Cytochrome P450 3A4, sequence (P08684 whole entry): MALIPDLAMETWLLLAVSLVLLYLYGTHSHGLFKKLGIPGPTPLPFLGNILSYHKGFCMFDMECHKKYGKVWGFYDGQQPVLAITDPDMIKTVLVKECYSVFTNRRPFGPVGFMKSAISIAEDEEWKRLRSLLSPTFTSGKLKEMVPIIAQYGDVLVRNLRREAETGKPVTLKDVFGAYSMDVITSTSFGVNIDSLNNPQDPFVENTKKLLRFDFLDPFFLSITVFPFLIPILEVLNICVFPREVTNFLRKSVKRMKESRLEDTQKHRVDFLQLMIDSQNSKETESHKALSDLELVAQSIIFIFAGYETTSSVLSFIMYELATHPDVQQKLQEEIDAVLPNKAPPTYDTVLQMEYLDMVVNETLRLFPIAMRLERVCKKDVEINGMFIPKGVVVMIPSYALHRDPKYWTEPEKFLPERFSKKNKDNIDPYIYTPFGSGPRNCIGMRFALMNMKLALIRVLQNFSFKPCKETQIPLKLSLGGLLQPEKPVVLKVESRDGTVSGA

**Q.** For OCCN1CCC[C@@H](Nc2nnc(-c3ccc4occc4c3O)c3c2C2CCC3CC2)C1, which inhibition [1] is on record?
**A.** The inhibition was “inactive”.

**Q.** What about the inhibition [2] of the same compound?
**A.** The inhibition was “inactive”.

**Q.** And the inhibition [3]?
**A.** The inhibition was “inactive”.

**Q.** What about the inhibition [4] of the same compound?
**A.** Its inhibition is “Dose-Dependent Effect”.

**Q.** And the inhibition at 20 µM (hERG (KCNH2))?
**A.** Its inhibition at 20 µM is 49.1%.

**Q.** What about the inhibition [5] of the same compound?
**A.** The inhibition was “inactive”.

**Q.** And the inhibition [6]?
**A.** The inhibition was “inactive”.

**Q.** And the inhibition [7]?
**A.** The inhibition was “Active”.

**Q.** And the Activity (BMDM)?
**A.** Its Activity is “Dose-Dependent Effect”.

**Q.** And the Activity (Mus musculus [8])?
**A.** The Activity was 82%.

**Q.** What about the inhibition [9] of the same compound?
**A.** The inhibition was “inactive”.

**Q.** What about the Activity (AML12) of the same compound?
**A.** The Activity was “Non-Toxic”.

**Q.** What about the Tmax [10] of the same compound?
**A.** Its Tmax is 1.83 h.

**Q.** And the inhibition [11]?
**A.** The inhibition was “Active”.

**Q.** And the inhibition at 0.1 µM [12]?
**A.** Its inhibition at 0.1 µM is 98.9%.

**Q.** And the inhibition [13]?
**A.** The inhibition was “inactive”.

**Q.** What about the half-life [14] of the same compound?
**A.** The half-life was 4.74 h.

**Q.** What about the “inhibition (INH)” value (Cytochrome P450 3A4) of the same compound?
**A.** Its value is “Not Active”.

**Q.** And the Activity (Mus musculus [15])?
**A.** The Activity was “Active”.

**Q.** And the “inhibition (INH)” value (Cytochrome P450 2D6)?
**A.** Its value is “Active”.

**Q.** And the inhibition at 0.5 µM [16]?
**A.** Its inhibition at 0.5 µM is 98.9%.

**Q.** And the inhibition (Mus musculus [17])?
**A.** The inhibition was “Active”.

**Q.** And the Activity (HepG2)?
**A.** Its Activity is “Non-Toxic”.

**Q.** And the Activity (Mus musculus [18])?
**A.** Its Activity is “Active”.

**Q.** What about the inhibition (Mus musculus [19]) of the same compound?
**A.** The inhibition was “Active”.

**Q.** And the Activity (LX-2)?
**A.** Its Activity is “Non-Toxic”.

**Q.** What about the half-life at 10 µM [20] of the same compound?
**A.** Its half-life at 10 µM is > 2 h.
